Patent US9271978B2 (Zenith Epigenetics Corp., priority 2012, dated 2016)

Columns and labels:
[1] = biological target: T1, Brd4 bromodomain 1 (BRD4(1)) (Homo sapiens, UniProt O60885); test: Inhibition of tetra-acetylated histone H4 binding to Brd4 bromodomain 1 (TR-FRET); design: key: Active: Compounds with an IC50 value less than 30 μM were deemed to be active.; Not Active: Compounds with an IC50 value less than 30 μM were deemed to be active; details: tetra-acetylated histone H4 peptide, active = IC50 <30 μM
T1 construct: Illustrative results with the first bromodomain of Brd4; made in house; host or cells: E. coli BL21 (DE3)
Method: (§1) Proteins were cloned and overexpressed with a N-terminal 6×His tag, then purified by nickel affinity followed by size exclusion chromatography. Briefly, E. coli BL21 (DE3) cells were transformed with a recombinant expression vector encoding N-terminally Nickel affinity tagged bromodomains from Brd2, Brd3, Brd4. Cell cultures were incubated at 37° C. with shaking to the appropriate density and induced overnight with IPTG. The supernatant of lysed cells was loaded onto Ni-IDA column for purification. Eluted protein is pooled, concentrated and further purified by size exclusion chromatography. Fractions representing monomeric protein were pooled, concentrated, aliquoted, and frozen at −80° C. for use in subsequent experiments.
(§2) Binding of tetra-acetylated histone H4 and BET bromodomains was confirmed by a Time Resolved Fluorescence Resonance Energy Transfer (TR-FRET) method. N-terminally His-tagged bromodomains (200 nM) and biotinylated tetra-acetylated histone H4 peptide (25-50 nM, Millipore) were incubated in the presence of Europium Cryptate-labeled streptavidin (Cisbio Cat. #610SAKLB) and XL665-labeled monoclonal anti-His antibody (Cisbio Cat. #61HISXLB) in a white 96 well microtiter plate (Greiner). For inhibition assays, serially diluted test compound was added to these reactions in a 0.2% final concentration of DMSO. Final buffer concentrations were 30 mM HEPES pH 7.4, 30 mM NaCl, 0.3 mM CHAPS, 20 mM phosphate pH 7.0, 320 mM KF, 0.08% BSA). After a 2-h incubation at room temperature, the fluorescence by FRET was measured at 665 and 620 nm by a SynergyH4 plate reader (Biotek). Illustrative results with the first bromodomain of Brd4 and the second bromodomain of Brd2 are shown below. The binding inhibitory activity was shown by a decrease in 665 nm fluorescence relative to 620 nm. IC50 values were determined from a dose response curve.

[2] = biological target: T2, second bromodomain of Brd2 (BRD2(2)) (Homo sapiens, UniProt P25440); test: Inhibition of tetra-acetylated histone H4 binding to Brd2 bromodomain 2 (TR-FRET); design: key: Active: Compounds with an IC50 value less than 30 μM were deemed to be active.; Not Active: Compounds with an IC50 value less than 30 μM were deemed to be active; details: tetra-acetylated histone H4 peptide, active = IC50 <30 μM
T2 construct: made in house; host or cells: E. coli BL21 (DE3)
T2 sequence (P25440 344-453 limits assumed): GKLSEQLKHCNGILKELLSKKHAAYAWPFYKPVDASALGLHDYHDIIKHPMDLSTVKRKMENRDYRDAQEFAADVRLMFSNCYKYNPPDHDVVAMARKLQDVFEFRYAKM
Method: as §1, §2

| SMILES | FRET activity (IC50 <30 μM) BRD4(1) [1] | FRET activity (IC50 <30 μM) BRD2(2) [2] |
| --- | --- | --- |
| Cc1noc(C)c1-c1ccc(=O)n([C@@H](C)c2ccc(F)cc2)c1 (single isomer, unassigned) [Example 110] | Active | Active |
| Cc1noc(C)c1-c1ccc(=O)n(Cc2ncccn2)n1 [Example 3, 6-(3,5-Dimethylisoxazol-4-yl)-2-(pyrimidin-2-ylmethyl)pyridazin-3(2H)-one] | Not Active | Active |
| Cc1noc(C)c1-c1cnc(=O)n(Cc2ccccc2)c1 [Example 8, 1-Benzyl-5-(3,5-dimethylisoxazol-4-yl)pyrimidin-2(1H)-one] | Active | Active |
| Cc1noc(C)c1-c1ccc(=O)n(Cc2ccc(CN(C)C)cc2)c1 [Example 9, 1-(4-((Dimethylamino)methyl)benzyl)-5-(3,5-dimethylisoxazol-4-yl)pyridin-2(1H)-one hydrochloric acid] | Active | Active |
| Cc1noc(C)c1-c1ccc(=O)n(CC2CCNCC2)c1 [Example 10, 5-(3,5-Dimethylisoxazol-4-yl)-1-(piperidin-4-ylmethyl)pyridin-2(1H)-one hydrochloric acid] | Active | Active |
| Cc1noc(C)c1Cn1cc(-c2c(C)noc2C)ccc1=O [Example 11, 5-(3,5-Dimethylisoxazol-4-yl)-1-((3,5-dimethylisoxazol-4-yl)methyl)pyridin-2(1H)-one] | Active | Active |
| Cc1cc(=O)n(Cc2ccccc2)cc1-c1c(C)noc1C [Example 12, 1-Benzyl-5-(3,5-dimethylisoxazol-4-yl)-4-methylpyridin-2(1H)-one] | Active | Active |
| Cc1noc(C)c1-c1ccc(=O)n(Cc2ccc3nccnc3c2)c1 [Example 18, 5-(3,5-Dimethylisoxazol-4-yl)-1-(quinoxalin-6-ylmethyl)pyridin-2(1H)-one] | Active | Active |
| Cc1oncc1-c1cc(C)c(=O)n(Cc2ccccc2)n1 [Example 20, 2-Benzyl-4-methyl-6-(5-methylisoxazol-4-yl)pyridazin-3(2H)-one] | Not Active | Active |
| Cc1noc(C)c1-c1ccc(=O)n(Cc2cccc(Cl)c2)n1 [Example 23, 2-(3-Chlorobenzyl)-6-(3,5-dimethylisoxazol-4-yl)pyridazin-3(2H)-one] | Active | Active |
| Cc1noc(C)c1-c1ccc(=O)n(Cc2cccc(C(F)(F)F)c2)n1 [Example 31, 6-(3,5-Dimethylisoxazol-4-yl)-2-(3-(trifluoromethyl)benzyl)pyridazin-3(2H)-one] | Active | Active |
| Cc1cc(F)cc(Cn2nc(-c3c(C)noc3C)ccc2=O)c1 [Example 32, 6-(3,5-Dimethylisoxazol-4-yl)-2-(3-fluoro-5-methylbenzyl)pyridazin-3(2H)-one] | Not Active | Active |
| COc1ccc(Cn2nc(-c3c(C)noc3C)ccc2=O)cc1 [Example 33, 6-(3,5-Dimethylisoxazol-4-yl)-2-(4-methoxybenzyl)pyridazin-3(2H)-one] | Active | Active |
| COc1cccc(Cn2nc(-c3c(C)noc3C)ccc2=O)c1 [Example 35, 6-(3,5-Dimethylisoxazol-4-yl)-2-(3-methoxybenzyl)pyridazin-3(2H)-one] | Active | Active |
| Cc1noc(C)c1-c1ccc(=O)n(Cc2cccc(OC(F)(F)F)c2)n1 [Example 36, 6-(3,5-Dimethylisoxazol-4-yl)-2-(3-(trifluoromethoxy)benzyl)pyridazin-3(2H)-one] | Active | Active |
| Cc1noc(C)c1-c1ccc(=O)n(CC2CCOCC2)n1 [Example 37, 6-(3,5-Dimethylisoxazol-4-yl)-2-((tetrahydro-2H-pyran-4-yl)methyl)pyridazin-3(2H)-one] | Active | Active |

| SMILES | FRET activity (IC50 <30 μM) BRD4(1) [1] | FRET activity (IC50 <30 μM) BRD2(2) [2] |
| --- | --- | --- |
| Cc1noc(C)c1-c1ccc(=O)n(Cc2ccccc2OC(F)(F)F)c1 [Example 40, 5-(3,5-Dimethylisoxazol-4-yl)-1-(2-(trifluoromethoxy)benzyl)pyridin-2(1H)-one] | Active | Active |
| Cc1ccc(Cn2cc(-c3c(C)noc3C)ccc2=O)cc1 [Example 41, 5-(3,5-Dimethylisoxazol-4-yl)-1-(4-methylbenzyl)pyridin-2(1H)-one] | Active | Active |
| Cc1noc(C)c1-c1ccc(=O)n(CC2CC2)n1 [Example 45, 2-(Cyclopropylmethyl)-6-(3,5-dimethylisoxazol-4-yl)pyridazin-3(2H)-one] | Active | Active |
| Cc1noc(C)c1-c1ccc(=O)n(CC2CC2)c1 [Example 48, 1-(Cyclopropylmethyl)-5-(3,5-dimethylisoxazol-4-yl)pyridin-2(1H)-one] | Active | Active |
| Cc1oncc1-c1ccc(=O)n(Cc2ccccc2)c1 [Example 57, 1-Benzyl-5-(5-methylisoxazol-4-yl)pyridin-2(1H)-one] | Active | Active |
| O=c1ccc(-c2cnoc2)cn1Cc1ccccc1 [Example 58, 1-Benzyl-5-(isoxazol-4-yl)pyridin-2(1H)-one] | Not Active | Active |
| O=c1ccc(-c2cnsc2)cn1Cc1ccccc1 [Example 59, 1-Benzyl-5-(isothiazol-4-yl)pyridin-2(1H)-one] | Not Active | Active |
| Cc1noc(C)c1Nc1ccc(=O)n(Cc2ccccc2)n1 [Example 61] | Active | Active |
| O=c1ccc(-c2ccnc(O)c2)cn1Cc1ccccc1 [Example 62, 1-Benzyl-2′-hydroxy-[3,4′-bipyridin]-6(1H)-one] | Not Active | Active |
| Cc1noc(C)c1-c1cc(C2CC2)c(=O)n(Cc2ccccc2)c1 [Example 67, 1-Benzyl-3-cyclopropyl-5-(3,5-dimethylisoxazol-4-yl)pyridin-2(1H)-one] | Active | Active |
| Cc1noc(C)c1-c1ccc(=O)n(C(=O)c2ccc(F)cc2)c1 [Example 68, 5-(3,5-Dimethylisoxazol-4-yl)-1-(4-fluorobenzoyl)pyridin-2(1H)-one] | Active | Active |
| Cc1noc(C)c1-c1ccc(=O)n(C(=O)c2ccc(Cl)cc2)c1 [Example 69, 1-(4-Chlorobenzoyl)-5-(3,5-dimethylisoxazol-4-yl)pyridin-2(1H)-one] | Active | Active |
| Cc1noc(C)c1-c1cc(NCc2ccccc2)c(=O)n(Cc2ccccc2)c1 [Example 74, 1-Benzyl-3-(benzylamino)-5-(3,5-dimethylisoxazol-4-yl)pyridin-2(1H)-one] | Active | Active |
| Cc1noc(C)c1-c1ccc(=O)n(Cc2ccc(OC(F)(F)F)cc2)n1 [Example 76, 6-(3,5-Dimethylisoxazol-4-yl)-2-(4-(trifluoromethoxy)benzyl)pyridazin-3(2H)-one] | Active | Active |
| Cc1noc(C)c1-c1ccc(=O)n(Cc2ccc3ccccc3c2)n1 [Example 77, 6-(3,5-Dimethylisoxazol-4-yl)-2-(naphthalen-2-ylmethyl)pyridazin-3(2H)-one] | Active | Active |
| O=c1ccc(-c2cncs2)cn1Cc1ccccc1 [Example 80, 1-Benzyl-5-(thiazol-5-yl)pyridin-2(1H)-one] | Not Active | Active |
